# Source: paper PMC7144120, “Psoralen Derivatives as Inhibitors of Mycobacterium tuberculosis Proteasome” (Molecules, 2020)
# How the values were obtained:
# [1] = tested on: ß5i of IP; conditions: cited from earlier work; for RA at 10 µM against ß5i of IP: residual activity of β5i in the presence of 10 μM compound; for Ki: read-out: Ki against ß5i of IP; for IC50: read-out: IC50 against ß5i of IP
# [2] = target: T1, Mtb proteasome (Mycobacterium tuberculosis, UniProt P9WHT9); assay: biochemical; assay type: biochemical; conditions: for IC50: 50 µM Suc-LLVY-AMC, 30 min preincubation, 37 °C, triplicate, read-out: IC50 against the Mtb proteasome; for Hill Coefficient: from IC50 curve, Mtb proteasome
# T1 construct: made in house
# T1 sequence (P9WHT9 whole entry, looked up): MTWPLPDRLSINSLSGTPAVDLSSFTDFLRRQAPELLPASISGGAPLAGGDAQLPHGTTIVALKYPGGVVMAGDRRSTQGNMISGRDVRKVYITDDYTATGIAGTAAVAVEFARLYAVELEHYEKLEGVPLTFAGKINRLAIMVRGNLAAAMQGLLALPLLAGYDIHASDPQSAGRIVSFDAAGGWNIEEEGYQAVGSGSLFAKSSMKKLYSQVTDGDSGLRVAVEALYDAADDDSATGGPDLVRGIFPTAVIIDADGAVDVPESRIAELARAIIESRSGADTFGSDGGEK
Compound,RA at 10 µM against ß5i of IP [1] [%],RA at 100 µM against Mtb [2] [%],Ki [1] [µM],other results
Cc1c(CCC(=O)O)c(=O)oc2cc3c(cc12)C(c1ccccc1)CO3 (racemic) [Compound 91],94,95,,
Cc1c(CCC(=O)ON2C(=O)CCC2=O)c(=O)oc2cc3c(cc12)C(c1ccccc1)CO3 (racemic) [Compound 92],36,95,,
Cc1c(CCC(=O)O)c(=O)oc2cc3occ(-c4ccc(Br)cc4)c3cc12 [Compound 1],,,137,IC50 [2]: 39 ± 7 µM; Hill Coefficient [2]: 0.69
Cc1c(CCC(=O)O)c(=O)oc2cc3occ(-c4ccc(Cl)cc4)c3cc12 [Compound 2],83,,,IC50 [2]: 15 ± 2 µM; Hill Coefficient [2]: 1.75
Cc1c(CCC(=O)O)c(=O)oc2cc3occ(-c4ccc(C(=O)O)cc4)c3cc12 [Compound 3],53,,,IC50 [2]: 31 ± 5 µM; Hill Coefficient [2]: 1.22
Cc1c(CC(=O)O)c(=O)oc2cc3occ(-c4ccc(Br)cc4)c3cc12 [Compound 4],,,12.7,IC50 [2]: 4 ± 3 µM; Hill Coefficient [2]: 1.59
Cc1c(CCC(=O)O)c(=O)oc2c(C)c3occ(-c4ccc(Br)cc4)c3cc12 [Compound 5],93,,,IC50 [2]: 17 ± 3 µM; Hill Coefficient [2]: 0.70
Cc1c(C(=O)O)c(=O)oc2cc3occ(-c4ccccc4)c3cc12 [Compound 6],82,,,IC50 [2]: 2.2 ± 0.3 µM; Hill Coefficient [2]: 0.70
Cc1c(CCC(=O)N(C)CC#N)c(=O)oc2cc3occ(C(C)(C)C)c3cc12 [Compound 7],100,,,IC50 [2]: 8 ± 5 µM; Hill Coefficient [2]: 0.42
Cc1c(CCC(=O)NCC#N)c(=O)oc2cc3occ(-c4ccccc4)c3cc12 [Compound 9],66,,,IC50 [2]: 2 ± 2 µM; Hill Coefficient [2]: 2.27
Cc1cc(-c2coc3cc4oc(=O)c(CC(=O)NCC#N)c(C)c4cc23)c(C)o1 [Compound 10],100,,,IC50 [2]: 3 ± 2 µM; Hill Coefficient [2]: 4.46
Cc1c(CCC(=O)ON2C(=O)CCC2=O)c(=O)oc2cc3occ(C4CCCCC4)c3cc12 [Compound 12],,,,IC50 [1]: 1.8 µM; IC50 [2]: 5 ± 2 µM; Hill Coefficient [2]: 1.05
Cc1cc(-c2coc3cc4oc(=O)c(CC(=O)ON5C(=O)CCC5=O)c(C)c4cc23)c(C)o1 [Compound 14],,,,IC50 [1]: 6.9 µM; IC50 [2]: 9 ± 5 µM; Hill Coefficient [2]: 2.42
Cc1c(CCC(=O)O)c(=O)oc2cc3occ(-c4ccccc4)c3cc12 [Compound 16],,72,1.6 ± 0.7,IC50 [1]: 1.6 µM; inhibition of the Mtb proteasome [2]: did not inhibit
COc1ccc(-c2coc3cc4oc(=O)c(CCC(=O)O)c(C)c4cc23)cc1 [Compound 17],84,100,,
COc1cccc(-c2coc3cc4oc(=O)c(CCC(=O)O)c(C)c4cc23)c1 [Compound 18],,100,29.6 ± 3.9,
Cc1c(CCC(=O)O)c(=O)oc2cc3occ(C(C)(C)C)c3cc12 [Compound 19],83,95,,
Cc1coc2cc3oc(=O)c(CCC(=O)O)c(C)c3cc12 [Compound 20],94,93,,
Cc1cc(-c2coc3cc4oc(=O)c(CCC(=O)O)c(C)c4cc23)c(C)s1 [Compound 21],,99,52.3 ± 18,
Cc1c(CCC(=O)O)c(=O)oc2cc3occ(-c4ccco4)c3cc12 [Compound 22],,55,116 ± 27,
Cc1cc(-c2coc3cc4oc(=O)c(CCC(=O)O)c(C)c4cc23)c(C)o1 [Compound 23],100,76,,
Cc1c(CCC(=O)O)c(=O)oc2cc3occ(C4CCCCC4)c3cc12 [Compound 24],102,71,,

Compound,RA at 10 µM against ß5i of IP [1] [%],RA at 100 µM against Mtb [2] [%],Ki [1] [µM],other results
Cc1c(CC(=O)O)c(=O)oc2cc3occ(-c4ccccc4)c3cc12 [Compound 25],,96,2.4 ± 0.4,
COc1ccc(-c2coc3cc4oc(=O)c(CC(=O)O)c(C)c4cc23)cc1 [Compound 26],,50,8.2 ± 0.5,
COc1cccc(-c2coc3cc4oc(=O)c(CC(=O)O)c(C)c4cc23)c1 [Compound 27],,98,7 ± 0.2,
Cc1c(CC(=O)O)c(=O)oc2cc3occ(C(C)(C)C)c3cc12 [Compound 28],85,97,,
Cc1coc2cc3oc(=O)c(CC(=O)O)c(C)c3cc12 [Compound 29],88,61,,
Cc1cc(-c2coc3cc4oc(=O)c(CC(=O)O)c(C)c4cc23)c(C)s1 [Compound 30],,93,36.5 ± 7.1,
Cc1c(CC(=O)O)c(=O)oc2cc3occ(-c4ccco4)c3cc12 [Compound 31],,79,89.3 ± 2,
Cc1cc(-c2coc3cc4oc(=O)c(CC(=O)O)c(C)c4cc23)c(C)o1 [Compound 32],,100,351 ± 48,
Cc1c(CC(=O)O)c(=O)oc2cc3occ(C4CCCCC4)c3cc12 [Compound 33],,90,198 ± 21,
O=C(O)Cc1cc2cc3c(-c4ccccc4)coc3cc2oc1=O [Compound 34],,54,3.8 ± 1.1,
Cc1c(CCC(=O)O)c(=O)oc2c(C)c3occ(-c4ccccc4)c3cc12 [Compound 35],,100,43.1 ± 15,
COc1cccc(-c2coc3c(C)c4oc(=O)c(CCC(=O)O)c(C)c4cc23)c1 [Compound 36],72,87,,
COc1ccc(-c2coc3c(C)c4oc(=O)c(CCC(=O)O)c(C)c4cc23)cc1 [Compound 37],87,87,,
Cc1c(CCC(=O)O)c(=O)oc2c(C)c3occ(-c4ccc(Cl)cc4)c3cc12 [Compound 38],89,47,,
Cc1c(CCC(=O)O)c(=O)oc2c(C)c3occ(-c4ccc(C(=O)O)cc4)c3cc12 [Compound 39],,98,,
Cc1c(CCC(=O)N(C)CC#N)c(=O)oc2cc3occ(-c4ccccc4)c3cc12 [Compound 40],92,100,,
Cc1c(CCC(=O)N(C)CC#N)c(=O)oc2cc3occ(-c4ccc(Br)cc4)c3cc12 [Compound 41],107,91,,
Cc1coc2cc3oc(=O)c(CCC(=O)N(C)CC#N)c(C)c3cc12 [Compound 42],93,99,,
Cc1cc(-c2coc3cc4oc(=O)c(CCC(=O)N(C)CC#N)c(C)c4cc23)c(C)s1 [Compound 43],107,55,,
Cc1c(CCC(=O)N(C)CC#N)c(=O)oc2cc3occ(-c4ccco4)c3cc12 [Compound 44],86,82,,
Cc1coc2cc3oc(=O)c(CC(=O)NCC#N)c(C)c3cc12 [Compound 62],,60,,
Cc1c(CN)c(=O)oc2cc3occ(-c4ccccc4)c3cc12 [Compound 80],,55,,
